Results as given in the supplement of paper PMC10307832.

Key:
Test in all cases: relative viability (nuclei count vs DMSO), 5 days (fraction); higher = more cells survive
[1] = compound: COc1cc2c(Oc3ccc4[nH]c(C)cc4c3F)ncnc2cc1OCCCN1CCCC1 [Cediranib] + Nc1nc2[nH]cc(CCc3ccc(C(=O)N[C@@H](CCC(=O)O)C(=O)O)cc3)c2c(=O)[nH]1 [Pemetrexed] (partner 0.2 µM)
In short: (§1)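 A single step with final 0.05% Triton X-100, 1% formaldehyde and 1 ug/ml Hoechst fixed the cells and stained nuclei 5 days after treatment. Lung cancer cell lines in 1536-well plates had been treated by pin tool the day after seeding with one drug alone or a fixed anchor-drug dose plus five library-drug doses (not always all listed) in √10 steps, and nuclei were counted on 4× images. Relative viability is the ratio of nuclei in treated wells to nuclei in vehicle wells, taken as the median of duplicate plates.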

[2] = compound: COc1cc2c(Oc3ccc4[nH]c(C)cc4c3F)ncnc2cc1OCCCN1CCCC1 [Cediranib] + N=C(N)NC(=N)NCCc1ccccc1 [Phenformin] (partner 250 µM)
In short: as §1

[3] = compound: COc1cc2c(Oc3ccc4[nH]c(C)cc4c3F)ncnc2cc1OCCCN1CCCC1 [Cediranib] + CC(=O)Nc1cccc(-n2c(=O)n(C3CC3)c(=O)c3c(Nc4ccc(I)cc4F)n(C)c(=O)c(C)c32)c1 [Trametinib] (partner 0.02 µM)
In short: as §1

[4] = compound: COc1cc2c(Oc3ccc4[nH]c(C)cc4c3F)ncnc2cc1OCCCN1CCCC1 [Cediranib] + CC(=O)c1c(C)c2cnc(Nc3ccc(N4CCNCC4)cn3)nc2n(C2CCCC2)c1=O [Palbociclib] (partner 0.5 µM)
In short: as §1

Cell Line | relative viability ([1]; first compound 0.04 µM) | relative viability ([1]; first compound 0.1265 µM) | relative viability ([1]; first compound 0.4 µM) | relative viability ([1]; first compound 1.265 µM) | relative viability ([1]; first compound 4 µM) | relative viability ([2]; first compound 0.04 µM) | relative viability ([2]; first compound 0.1265 µM) | relative viability ([2]; first compound 0.4 µM) | relative viability ([2]; first compound 1.265 µM) | relative viability ([2]; first compound 4 µM) | relative viability ([3]; first compound 0.04 µM) | relative viability ([3]; first compound 0.1265 µM) | relative viability ([3]; first compound 0.4 µM) | relative viability ([3]; first compound 1.265 µM) | relative viability ([3]; first compound 4 µM) | relative viability ([4]; first compound 0.04 µM) | relative viability ([4]; first compound 0.1265 µM) | relative viability ([4]; first compound 0.4 µM) | relative viability ([4]; first compound 1.265 µM) | relative viability ([4]; first compound 4 µM)
COR-L23 | 0.203 | 0.209 | 0.2 | 0.214 | 0.202 | 0.452 | 0.39 | 0.406 | 0.405 | 0.482 | 0.608 | 0.578 | 0.573 | 0.425 | 0.532 | 0.282 | 0.349 | 0.279 | 0.353 | 0.263
NCI-H2023 | 0.283 | 0.274 | 0.254 | 0.233 | 0.248 | 0.417 | 0.443 | 0.396 | 0.42 | 0.458 | 0.592 | 0.585 | 0.565 | 0.591 | 0.905 | 0.398 | 0.344 | 0.359 | 0.413 | 0.397
A-427 | 0.921 |  | 0.955 | 0.962 | 1.08 | 0.346 |  | 0.228 | 0.308 | 0.253 | 0.747 |  | 0.717 | 0.684 | 0.737 | 0.524 |  | 0.481 | 0.458 | 0.502
NCI-H1793 | 0.822 | 0.991 | 0.693 | 0.568 | 1.14 | 0.231 | 0.32 | 0.39 |  | 0.393 | 0.449 | 0.446 | 0.407 | 0.435 | 0.432 | 0.306 | 0.277 | 0.3 | 0.271 | 0.311
LU99A | 0.173 |  | 0.172 | 0.2 | 0.17 | 0.726 | 0.589 | 0.75 | 0.734 | 0.924 | 0.553 |  | 0.544 | 0.515 | 0.568 | 0.422 |  | 0.361 | 0.408 | 0.518
NCI-H2009 | 1.08 | 0.914 | 0.957 | 1.04 | 0.999 | 0.492 | 0.434 | 0.481 | 0.481 | 0.493 | 0.288 | 0.335 | 0.237 | 0.213 | 0.276 | 0.308 | 0.188 | 0.19 | 0.0997 | 0.211
